Measurements reported in US20140045885A1, “Decoquinate, 4-hydroxyquinolones and napthoquinones combined with levamisole, Imidazothiazole, for the prevention and treatment of sarcocystosis and equine protozoal myeloencephalitis caused by Sarcocystis and Neospora and other apicomplexan protozoans” (priority 2012, published 2014).
Where two headings read alike, the source gives them in different places.

Tests used:
[1] = cited from earlier work
EPM = settings: cited from earlier work; for cure rate / relapse rate: EPM treatment in horses; for efficacy in horses to improve one grade of disease: EPM treatment
[2] = cited from earlier work; remark: listed apart in the source
[3] = in vivo; cited from earlier work
S. neurona = settings: cell cultures infected with S. neurona; cited from earlier work
[4] = Safety at the treatment dose in 150 horses; type: in vivo, horse; settings: decoquinate 0.5 mG/kG and levamisole 1 mG/kG alone and in combination
[5] = test system: S. neurona infections or EPM; test: Trial in horses with presumptive diagnosis of EPM; type: in vivo, horse
Experimental: A trial was initiated in which veterinarians conducted neurological examinations and determined a presumptive diagnosis of EPM. […] The phenotype of S. neurona eliciting antibody production was determined for each animal. […] A neurological exam was conducted at the end of the treatment period and two to four weeks following treatment. Two to four weeks after treatment antibody levels were again assessed for serum antibody levels to S. neurona by phenotype. […] Veterinarians involved in the study elected to start decoquinate therapy at 0.05 mG/kG if the animals had received anti-protozoal therapy in the past and the case was considered a relapse of EPM.

[6] = test system: Sarcocystis neurona merozoites (SN3 strain); settings: 0.1 microgram/ml decoquinate for 10 or 20 minutes, washed off, cultures maintained 16 days, controls 25% CPE; cited from earlier work
[7] = test system: Sarcocystis neurona merozoites (SN6 strain); settings: 0.1 microgram/ml decoquinate for 5 or 15 minutes, washed off, read at 6 weeks; cited from earlier work
[8] = test system: Sarcocystis neurona merozoites (SN2 strain); settings: 0.1 microgram/ml decoquinate for 10 or 20 minutes, washed off, cultures maintained 16 days, controls 40% CPE; cited from earlier work
[9] = test system: Sarcocystis neurona merozoites (SN3 strain); settings: cited from earlier work
[10] = horses, 5 mg/kg daily for 10 days

Which results are given for Cc1cc(-n2c(=O)[nH]c(=O)n(C)c2=O)ccc1Oc1ccc(SC(F)(F)F)cc1 [toltrazuril]?
lipid solubility [1]: good lipid solubility; cure rate (EPM): less than 25%; relapse rate (EPM): 60%; efficacy in horses to improve one grade of disease (EPM): 60%; mean CSF concentration [2, 10]: 160 µg/mL; plasma levels [2, 10]: 20000 ng/mL; oral absorption ([2]; in vivo, po): good oral absorption; elimination time ([2]; in vivo): 48 to 72 h; complications, serum chemistry values, complete blood counts [3]: has not been shown to result in any complications

Which cure rate (EPM) does the source give for N#CC(c1ccc(Cl)cc1)c1c(Cl)cc(-n2ncc(=O)[nH]c2=O)cc1Cl (stereo not shown) [diclazuril] here?
Its cure rate is “less than 25%”.

And the relapse rate (EPM)?
The relapse rate was 60%.

What about the “efficacy in horses to improve one grade of disease” value (EPM) of the same compound?
The value was 60%.

And the “time after feeding at which drug was found in serum” value ([2]; fed to horses)?
Its value is “one”.

And the “anti-S. neurona activity in cell cultures” value (S. neurona)?
The value was “has anti-S. neurona activity”.

With c1ccc([C@H]2CN3CCSC3=N2)cc1 [levamisole] as the compound, how does the adverse reactions [4] read?
The adverse reactions was “no adverse reactions”.

For CCCCCCCCCCOc1cc2c(O)c(C(=O)OCC)cnc2cc1OCC [decoquinate, 6-declyoxy-7-ethoxy-4-hydroxy-3-quinoline-carboxylic acid ethyl ester], which “time of therapy until noted improvement” value ([5]; decoquinate alone 0.05 mG/kG versus decoquinate/levamisole 0.5 mG/kG and 1.0 mg/kG) is on record?
The value was over 5 days.

And the “treatment outcome in mildly afflicted horses” value ([5]; prevention dose 0.05 mG/kG decoquinate alone, 90 days, 7 horses)?
Its value is “success obtained in all the horses”.

And the “success in historically relapsing horses” value ([5]; relapse cases after Marquis (17) or pyrimethamine/sulfadiazine (2), decoquinate therapy started at 0.05 mG/kG)?
The value was 100%.

And the adverse reactions [4]?
Its adverse reactions is “no adverse reactions”.

And the “parasites or parasite induced lesions in treated infected flasks” value [6]?
Its value is “No parasites or parasite induced lesions were seen”.

What about the “parasites or parasite induced lesions in treated infected flasks” value [7] of the same compound?
The value was “No parasites or parasite induced lesions were seen”.

And the “cytopathic effect (CPE)” value [8]?
The value was 5%.

And the “reduction in merozoite production” value ([9]; 0.0001 microgram/ml continuously for 10 days)?
Its value is 40%.

What about the “reduction in merozoite production” value ([9]; 0.001 microgram/ml continuously for 10 days) of the same compound?
The value was 87%.

What about the “reduction in merozoite production” value ([9]; 0.01 microgram/ml continuously for 10 days) of the same compound?
Its value is 98%.
